According to patent US20230212121A1 (DAEGU-GYEONGBUK MEDICAL INNOVATION FOUNDATION, priority 2020, published 2023):
Read-outs that look alike come from different tables or passages of the source.

Tests used:
Format in all cases: cell-based
[1] = molecular target: T1, dopamine transporter (DAT) (Homo sapiens, UniProt Q01959); assay: Dopamine reuptake inhibition, [3H]-DA, HEK-293 cells transfected with dopamine transporter cDNA; conditions: for Triple reuptake inhibition (Ratio %) DAT: compound 1 μM, 20-30 nM [3H]-DA, relative to control without compound = 100%, lower value = more inhibition; for IC50: concentration at which Ratio % is 50%, 6 concentrations 1 nM to 1 μM, read-out: Triple reuptake inhibition (IC50, μM) DAT
T1 construct: expressed in transfected cells; host or cells: HEK-293
Experimental: (§1) In order to evaluate the reuptake inhibitory effect of the compounds of the Examples according to the present invention on serotonin, norepinephrine and dopamine, the experiments below were performed, and the results are shown in Table 17.
(§2) To evaluate the reuptake inhibition effect on dopamine, the dopamine transporter cDNA was transfected using the HEK-293 cell line, and then sub-seeded in a 24 well plate the next day. After removing the medium, each compound of the Examples or Comparative Examples diluted to 1 μM in uptake buffer was added to a concentration of 200 μl/well and cultured at 37° C. for 15 minutes. 100 μl of uptake buffer containing 20-30 nM [3H]-DA was added and cultured at 37° C. for 5 minutes. The reaction solution was quickly removed and washed three times with 1 ml ice-cold uptake buffer. After dissolving the resultant in 1% SDS (0.5 ml), the degree of binding of radioisotope-labeled dopamine to the transporter was measured.
(§3) In addition, when evaluating the reuptake inhibitory effect on dopamine, norepinephrine, and serotonin, the same method was performed without treating each compound of the Examples or Comparative Examples as a control, the degree of binding of radioisotope-labeled dopamine, norepinephrine, and serotonin to the transporter was measured, and by using this as a reference (100%), the triple reuptake inhibitory effect was evaluated as a relative ratio (Ratio %). That is, in the control group, the binding of dopamine, norepinephrine, and serotonin to transporters is not inhibited, but when each compound of the Examples is treated and thus the binding is inhibited, the Ratio % value decreases.
(§4) Meanwhile, the Ratio % values were compared, and in the case of the compounds of Examples 6, 10, 13, 14, 17, 20, 21, 22, 30, 31, 32, 34, 36, 38, 39, 40, 54, 55, 56, 57, 58 and 73 with excellent reuptake inhibitory effects on dopamine, norepinephrine and serotonin, the concentration at which the Ratio % is 50% was calculated using a total of 6 concentrations (1 nM, 5 nM, 10 nM, 50 nM, 100 nM, and 1 μM) and expressed as IC50.

[2] = molecular target: T2, serotonin transporter (SERT) (Homo sapiens, UniProt P31645); assay: Serotonin reuptake inhibition, [3H]-5-HT, HEK-293 cells transfected with 5-HT transporter cDNA; conditions: for IC50: concentration at which Ratio % is 50%, 6 concentrations 1 nM to 1 μM, read-out: Triple reuptake inhibition (IC50, μM) SERT
T2 construct: expressed in transfected cells; host or cells: HEK-293
Experimental: as §1, §2
(§5) For norepinephrine (NE) and serotonin (5-HT), the degree of binding of radioisotope-labeled norepinephrine or serotonin to the transporter was measured in the same manner as above, except that cells transfected with NE or 5-HT transporter cDNA were used and [3H]—NE or [3H]-5-HT was used as a substrate.
as §3, §4

[3] = molecular target: T3, norepinephrine transporter (NET) (Homo sapiens, UniProt P23975); assay: Norepinephrine reuptake inhibition, [3H]-NE, HEK-293 cells transfected with NE transporter cDNA; conditions: for Triple reuptake inhibition (Ratio %) NET: compound 1 μM, [3H]-NE, relative to control without compound = 100%, lower value = more inhibition; for IC50: concentration at which Ratio % is 50%, 6 concentrations 1 nM to 1 μM, read-out: Triple reuptake inhibition (IC50, μM) NET
T3 construct: expressed in transfected cells; host or cells: HEK-293
Experimental: as §1, §2, §5, §3, §4

[4] = compound 1 μM, [3H]-5-HT, relative to control without compound = 100%, lower value = more inhibition

T1 sequence (Q01959 whole entry, species assumed): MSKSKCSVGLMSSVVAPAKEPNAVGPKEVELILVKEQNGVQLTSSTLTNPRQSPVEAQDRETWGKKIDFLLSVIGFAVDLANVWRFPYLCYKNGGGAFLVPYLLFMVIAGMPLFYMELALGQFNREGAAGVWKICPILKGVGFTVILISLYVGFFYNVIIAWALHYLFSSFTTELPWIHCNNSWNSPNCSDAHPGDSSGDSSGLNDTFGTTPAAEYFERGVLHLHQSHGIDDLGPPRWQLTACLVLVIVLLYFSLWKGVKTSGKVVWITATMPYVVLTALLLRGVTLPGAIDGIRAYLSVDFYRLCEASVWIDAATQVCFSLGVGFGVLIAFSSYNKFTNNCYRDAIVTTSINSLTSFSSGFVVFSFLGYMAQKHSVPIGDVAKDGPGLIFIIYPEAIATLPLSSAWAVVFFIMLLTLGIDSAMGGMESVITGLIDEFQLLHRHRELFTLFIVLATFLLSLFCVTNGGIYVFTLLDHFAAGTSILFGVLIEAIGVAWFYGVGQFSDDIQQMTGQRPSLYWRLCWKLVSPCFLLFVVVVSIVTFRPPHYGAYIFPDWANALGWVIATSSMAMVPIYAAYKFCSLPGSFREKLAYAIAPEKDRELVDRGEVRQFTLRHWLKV
T2 sequence (P31645 whole entry, species assumed): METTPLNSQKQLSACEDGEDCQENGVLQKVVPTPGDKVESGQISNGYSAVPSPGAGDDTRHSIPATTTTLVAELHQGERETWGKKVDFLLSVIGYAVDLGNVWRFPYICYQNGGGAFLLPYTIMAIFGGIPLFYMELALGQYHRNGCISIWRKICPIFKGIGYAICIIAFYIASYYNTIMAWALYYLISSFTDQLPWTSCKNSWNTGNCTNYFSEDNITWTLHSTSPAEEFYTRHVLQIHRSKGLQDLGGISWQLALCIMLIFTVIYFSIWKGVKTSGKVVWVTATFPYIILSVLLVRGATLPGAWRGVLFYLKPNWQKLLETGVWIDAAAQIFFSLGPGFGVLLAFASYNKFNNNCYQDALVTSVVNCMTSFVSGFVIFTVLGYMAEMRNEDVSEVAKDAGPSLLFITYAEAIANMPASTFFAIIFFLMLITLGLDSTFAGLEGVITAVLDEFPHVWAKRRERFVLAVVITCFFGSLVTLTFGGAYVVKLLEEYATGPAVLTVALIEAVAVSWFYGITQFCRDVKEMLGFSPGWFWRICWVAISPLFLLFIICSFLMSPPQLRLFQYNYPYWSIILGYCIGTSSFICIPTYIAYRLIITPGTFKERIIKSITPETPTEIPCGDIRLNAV
T3 sequence (P23975 whole entry, species assumed): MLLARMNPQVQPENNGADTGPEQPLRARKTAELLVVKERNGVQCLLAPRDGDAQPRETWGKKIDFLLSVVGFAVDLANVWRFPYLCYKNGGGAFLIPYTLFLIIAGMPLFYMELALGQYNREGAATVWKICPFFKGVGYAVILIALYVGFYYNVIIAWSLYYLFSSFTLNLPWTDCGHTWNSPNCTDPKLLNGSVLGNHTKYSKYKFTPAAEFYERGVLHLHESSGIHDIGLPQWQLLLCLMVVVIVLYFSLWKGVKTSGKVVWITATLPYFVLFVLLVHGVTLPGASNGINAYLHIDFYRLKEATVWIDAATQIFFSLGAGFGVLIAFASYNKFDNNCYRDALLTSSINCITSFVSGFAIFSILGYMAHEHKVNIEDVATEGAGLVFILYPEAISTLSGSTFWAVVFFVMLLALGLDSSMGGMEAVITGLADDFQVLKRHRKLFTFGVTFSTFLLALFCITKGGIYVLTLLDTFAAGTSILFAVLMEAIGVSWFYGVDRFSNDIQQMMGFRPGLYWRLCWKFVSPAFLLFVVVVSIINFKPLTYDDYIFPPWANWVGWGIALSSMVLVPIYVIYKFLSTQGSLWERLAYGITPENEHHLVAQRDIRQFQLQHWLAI

SMILES	Triple reuptake inhibition (Ratio %) DAT [1] [%]	Triple reuptake inhibition (Ratio %) SERT [2] [%]	Triple reuptake inhibition (Ratio %) NET [3] [%]	Triple reuptake inhibition (Ratio %) SERT [2, 4] [%]	IC50 [1] [µM]	IC50 [2] [µM]	IC50 [3] [µM]
O=S(=O)(NCCN1CCC(Cc2ccccc2)CC1)c1ccc(O)cc1 [Example 1, N-(2-(4-benzylpiperidin-1-yl)ethyl)-4-hydroxybenzenesulfonamide]	65.88	84.98	77.88				
O=S(=O)(NCCN1CCC(Cc2ccccc2)CC1)c1ccc(F)cc1 [Example 2, N-(2-(4-benzylpiperidin-1-yl)ethyl)-4-fluorobenzenesulfonamide]	73.55		61.32	100.21			
O=S(=O)(NCCN1CCC(Cc2ccccc2)CC1)c1ccc(Oc2ccccc2)cc1 [Example 3, N-(2-(4-benzylpiperidin-1-yl)ethyl)-4-phenoxybenzenesulfonamide]	50.09		56.36	62.10			
CCCCOc1ccc(S(=O)(=O)NCCN2CCC(Cc3ccc(Cl)c(Cl)c3)CC2)cc1 [Example 4, 4-butoxy-N-(2-(4-(3,4-dichlorobenzyl)piperidin-1-yl)ethyl)benzenesulfonamide]	88.71		80.47	76.57			
CCCCOc1ccc(S(=O)(=O)N2CCC(c3c[nH]c4ccccc34)CC2)cc1 [Example 5, 3-(1-((4-butoxyphenyl)sulfonyl)piperidin-4-yl)-1H-indole]	100.55		94.03	106.55			
CCCCOc1ccc(S(=O)(=O)NCCN2CCC(c3c[nH]c4ccccc34)CC2)cc1 [Example 6]	54.56		81.97	29.04	1.99	0.457	
CCCCOc1ccc(S(=O)(=O)NCCN2CCC(c3c[nH]c4ccc(C)cc34)CC2)cc1 [Example 7, 4-butoxy-N-(2-(4-(5-methyl-1H-indol-3-yl)piperidin-1-yl)ethyl)benzenesulfonamide]	99.63		88.38	93.29			
CCCCOc1ccc(S(=O)(=O)NCCN2CCC(c3c[nH]c4ccc(OC)cc34)CC2)cc1 [Example 8, 4-butoxy-N-(2-(4-(5-methoxy-1H-indol-3-yl)piperidin-1-yl)ethyl)benzenesulfonamide]	90.67		79.30	98.57			
CCCCOc1ccc(S(=O)(=O)N2CCC(CCc3ccccc3)CC2)cc1 [Example 9, 1-((4-butoxyphenyl)sulfonyl)-4-phenethylpiperidin]	109.25		96.32	101.11			
CCCCOc1ccc(S(=O)(=O)NCCCN2CCC(Cc3ccccc3)CC2)cc1 [Example 10, N-(3-(4-benzylpiperidin-1-yl)propyl)-4-butoxybenzenesulfonamide]	41.80		13.02	24.45	0.612	0.483	0.168
CCCCOc1ccc(S(=O)(=O)NCCCN2CCC(c3c[nH]c4ccccc34)CC2)cc1 [Example 11, N-(3-(4-(1H-indol-3-yl)piperidin-1-yl)propyl)-4-butoxybenzenesulfonamide]	73.16		73.79	18.04			
O=S(=O)(NCCCN1CCC(Cc2ccccc2)CC1)c1ccc(Oc2ccccc2)cc1 [Example 13, N-(3-(4-benzylpiperidin-1-yl)propyl)-4-phenoxybenzenesulfonamide]	25.55		11.04	41.46	0.872	1.08	0.112
COc1ccc(S(=O)(=O)NCCCN2CCC(Cc3ccccc3)CC2)cc1 [Example 14, N-(3-(4-benzylpiperidin-1-yl)propyl)-4-methoxybenzenesulfonamide]	39.90		22.30	55.67	1.26	1.75	0.173
CCCCNc1ccc(S(=O)(=O)NCCCN2CCC(Cc3ccccc3)CC2)cc1 [Example 16, N-(3-(4-benzylpiperidin-1-yl)propyl)-4-(butylamino)benzenesulfonamide]	93.59		53.45	74.25			
O=C(CCN1CCCCC1)Nc1ccc(S(=O)(=O)NCCCN2CCC(Cc3ccccc3)CC2)cc1 [Example 17, N-(4-(N-(3-(4-benzylpiperidin-1-yl)propyl)sulfamoyl)phenyl)-3-(piperidin-1-yl)propaneamide]	40.96		58.66	9.28	5.17	0.057	1.56
CN(C)CCC(=O)Nc1ccc(S(=O)(=O)NCCCN2CCC(Cc3ccccc3)CC2)cc1 [Example 18, N-(4-(N-(3-(4-benzylpiperidin-1-yl)propyl)sulfamoyl)phenyl)-3-(dimethylamino)propaneamide]	65.67		66.54				
CCCCOc1ccc(S(=O)(=O)NCCCN2CCC(Cc3ccc(Cl)c(Cl)c3)CC2)cc1 [Example 20, 4-butoxy-N-(3-(4-(3,4-dichlorobenzyl)piperidin-1-yl)propyl)benzenesulfonamide]	56.29		30.29	40.46	2.16	0.504	0.221
CCCCOc1ccc(S(=O)(=O)NCCCN2CCC(Cc3ccc(F)c(F)c3)CC2)cc1 [Example 21, 4-butoxy-N-(3-(4-(3,4-difluorobenzyl)piperidinyl)propyl)benzenesulfonamide]	57.35		26.67	38.74	4.72	0.455	0.946
CCCCOc1ccc(S(=O)(=O)NCCCN2CCC(c3ccc(Cl)c(Cl)c3)CC2)cc1 [Example 22, 4-butoxy-N-(3-(4-(3,4-dichlorophenyl)piperidinyl)propyl)benzenesulfonamide]	31.02		36.85	38.07	1.51	0.609	0.55
CCCCOc1ccc(S(=O)(=O)NCCCN2CCN(c3ccc(Cl)c(Cl)c3)CC2)cc1 [Example 23, 4-butoxy-N-(3-(4-(3,4-dichlorophenyl)piperazin-1-yl)propyl)benzenesulfonamide]	99.56		83.63	41.32			
CCCCOc1ccc(S(=O)(=O)NCCCN2CCN(c3cccc(Cl)c3Cl)CC2)cc1 [Example 24, 4-butoxy-N-(3-(4-(2,3-dichlorophenyl)piperazin-1-yl)propyl)benzenesulfonamide]	99.30		58.70	60.27			
CCCCOc1ccc(S(=O)(=O)NCCCN2CCN(CC3CCOCC3)CC2)cc1 [Example 25, 4-butoxy-N-(3-(4-((tetrahydro-2H-pyran-4-yl)methyl)piperazin-1-yl)propyl)benzenesulfonamide]	111.51		102.91	84.44			
